Literature values as cited in patent publication US20240108043A1, “NONNUTRITIVE SWEETENER COMPOSITIONS, METHODS OF MANUFACTURE AND USES THEREOF” (priority 2022, published 2024).
Where two headings read alike, the source gives them in different places. One block for each compound: values may come before it.

What was measured:
[1] = for Sweetness intensity relative to sucrose: times the sweetness intensity of sucrose
[2] = in vivo
[3] = diabetic human subjects, daily 20 g for 14 days
[4] = tested on: TNF-Alpha and Interleukin 1-Beta; conditions: concentration of 1 mM
[5] = not given; remark: listed apart in the source
[6] = 500 mg, two years, mild hypertension patients

Structure (SMILES): O=C(CO)[C@H](O)[C@H](O)[C@H](O)CO [allulose, D-ribo-2-hexulose]
- Sweetness intensity relative to sucrose [1]: approximately 0.7 times

- Excreted through urine with molecular structure unchanged [2]: Approximately 90%
Structure (SMILES): OC[C@@H](O)[C@@H](O)CO [erythritol, (2R,3S)-Butan-1,2,3,4-tetrol]
- Effect on blood glucose insulin [3]: no effect
- Sweetness, as sweet as sucrose ([1]; percent of sucrose sweetness): 60-70%
- Sweetness intensity relative to sucrose [1]: 0.6-0.7 times

Structure (SMILES): O=C(CO)[C@@H](O)[C@H](O)[C@H](O)CO [fructose, D-Fructose]
- Sweetness intensity relative to sucrose [1]: approximately 1.7 times

Structure (SMILES): OC[C@@H](O)[C@@H](O[C@@H]1O[C@H](CO)[C@H](O)[C@H](O)[C@H]1O)[C@H](O)[C@@H](O)CO [lactitol]
- Incidence of gastrointestinal distress compared to equal doses of sucrose (doses of 30-40 grams): significantly (p<0.01) increased

- Dose causing laxative affects (single bolus): greater than 20 grams
Structure (SMILES): OC[C@@H](O)[C@@H](O)[C@H](O)[C@H](O)CO [mannitol]

- Dose at which laxative affect is seen (men): 170 mg/kg
- Dose at which laxative affect is seen (women): 240 mg/kg
Structure (SMILES): OC[C@@H](O)[C@@H](O)[C@H](O)[C@@H](O)CO [sorbitol]

Structure (SMILES): C=C1C[C@@]23CC[C@H]4[C@@](C)(CCC[C@@]4(C)C(=O)O)[C@@H]2CC[C@]1(O)C3 [steviol]
- Endotoxin release of TNF-Alpha and Interleukin 1-Beta [4]: significantly suppressed

Structure (SMILES): C=C1C[C@@]23CC[C@H]4[C@@](C)(CCC[C@@]4(C)C(=O)O[C@@H]4O[C@H](CO)[C@@H](O)[C@H](O)[C@H]4O)[C@@H]2CC[C@]1(O[C@@H]1O[C@H](CO)[C@@H](O)[C@H](O)[C@H]1O[C@@H]1O[C@H](CO)[C@@H](O)[C@H](O)[C@H]1O)C3 [stevioside]
- Endotoxin release of TNF-Alpha and Interleukin 1-Beta [4]: significantly suppressed
- Blood glucose ([5]; 200 mg, sixty healthy volunteers): effectively reduce blood glucose
- Postprandial blood glucose levels ([5]; 1 gram vs 1 gram maize starch, type-2 diabetes patients, 30 and 240 minutes after a meal): reduced postprandial blood glucose levels
- Diastolic and systolic blood pressure [6]: significantly reduced
